Each structure is given as a SMILES string. “Also recorded” adds a separate entry of the source.

For one assay, the target named is T1, MYC bHLHZip (Homo sapiens, UniProt P01106).
T1 construct: 6xHis (N); made in house; host or cells: E. coli BL21 (DE3), pET28a; purified in denaturing conditions
Description: MST direct binding to MYC. The protocol:
To determine whether MYCMI-6 binds directly to MYC (or MAX), MST and SPR were applied. The bHLHZip domains of MYC or MAX, respectively (Suppl. Fig. S1C), were titrated and mixed with 3 μM of MYCMI-6.
(§1) MST was carried out on a Monolith NT.115 with blue/green filters, kindly provided by Luca Jovine, Karolinska Institutet Huddinge, according to manufacturer’s protocol (NanoTemper). MYCbHLHZip, MAXbHLHZip, BSA and BCL-XL recombinant proteins and compounds were diluted and titrated in PBS supplemented with 0.05% Triton-X-114 or 0.05% Tween-20. Titration of molecules was carried out in 16 PCR tubes into which a fixed concentration of fluorescent molecule was added. The mixture was applied to capillaries (standard treated, NanoTemper), and scanned in the Monolith NT.115 to measure initial fluorescence of molecule. MST was induced and fluorescence was measured during 40 seconds. Double measurements were carried out (MST power of 20% and 40%, or 40% and 60%) for each sample. Delta fluorescence or relative fluorescence of fluorescent molecule normalized to control vehicle was plotted against titrated molecule concentration. The protein labeling kit GREEN-NHS (NanoTemper) was used to label primary amines of proteins according to manufacture’s protocol.

In assay [1] the test system is T2, BCL-XL.
T2 construct: purchased Abcam
In words: MST binding to BCL-XL. As to conditions: 3 µM MYCMI-6, BCL-XL titrated up to 10 μM. As to the method:
as §1, with “manufacturer's” for “manufacturer’s”, “MYCbHLHZip, MAXbHLHZip, BSA and BCL-XL recombinant proteins and compounds were diluted and titrated in PBS supplemented with 0.05% Triton-X-114 or 0.05% Tween-20.” left out, “manufacture's” for “manufacture’s”, “protocol. page 5: Supplementary Figure Legends Supplemental Figure S1. Schematic presentations of MYC and MAX protein constructs. […] The cells were reseeded and treated with vehicle or 25 μM of each compound, after which fluorescence was measured 24 hours post-treatment and the YFP/CFP ratio calculated and normalized to DMSO-treated cells. […] (12.5 μM) and analyzed as described in C). […]” for “protocol.”

The test system of assay [2] is T3, bovine serum albumin (BSA).
T3 construct: purchased NanoTemper (included in the MST kit)
In words: MST binding to BSA. As to conditions: BSA titrated.
Description: Data are shown as mean ± standard deviation of 5 biological repeats.

A further assay deals with MXD1 (MAD1) bHLHZip (Homo sapiens, UniProt Q05195). In words: SPR binding to MXD1 (MAD1). As to the method:
The MYC SPR assay was carried out as described above with MYCbHLHZip immobilized to a level of 800–1000 RU. For kinetic binding experiments, a Langmuir 1:1 binding event was applied using the Biacore T200 Evaluation Software 2.0 (GE Healthcare) to determine association (ka) and dissociation (kd) constants of the compound and to calculate affinity (KD) by the formula; KD = kd/ka. Binding responses from equilibrium binding experiments were plotted against compound concentration and KD values were determined at 50% of the theoretical Rmax with the formula Rmax = (MW analyte/MW ligand) × immobilized ligand level on the chip (RU) × stoichiometry (1:1). Same coupling method described above was used to immobilize the control proteins. MAX was immobilized to approximately 2000 RU, MAD to 600 RU, BSA to 1000 RU, p53 to 3000 RU and BCL-XL, to 500 RU.
In general terms: Surface plasmon resonance follows binding to a sensor surface in real time, without labels.

For the next assay, the system named is YFP. Description: SPR binding to YFP. The conditions noted are these: data not shown.
Assay [3] deals with T2, BCL-XL. Details: method as in PMID 23824742. As to conditions: in vitro fluorescence polarization, BCL-XL:BAK; cited from earlier work. (In fluorescence polarisation assays a small probe gives low polarisation when free and higher when bound to something large.)

T1 sequence (P01106 367-447 limits assumed): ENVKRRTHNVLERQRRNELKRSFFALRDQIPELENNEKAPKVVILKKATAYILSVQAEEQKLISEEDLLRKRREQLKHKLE
Sequence of MXD1 (MAD1) bHLHZip (Q05195 56-137 limits assumed): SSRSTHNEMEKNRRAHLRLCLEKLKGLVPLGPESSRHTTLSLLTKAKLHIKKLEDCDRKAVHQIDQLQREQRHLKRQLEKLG

`CCOc1ccc2nc3cc(/N=N/c4ccc(N)nc4N)ccc3c(N)c2c1` [MYCMI-6]: the “binding to MYC bHLHZip (MST)” value on MYC bHLHZip (3 μM MYCMI-6, changes at 1–15 μM of MYC) is listed as “binding of MYCMI-6 to MYC”. At MYC bHLHZip (labeled MYC approximately 200 nM, MYCMI-6 titrated), the “concentration showing relative changes in thermophoresis of labeled MYC (reverse MST)” value is recorded as “above 100 nM”. For the same molecule, in the assay with BCL-XL [1], the “binding to BCL-XL (MST)” value is “did not bind; also recorded: did not observe any binding”. Further, the “binding to BSA (MST)” value in assay [2] is “did not bind”. Further, the “binding to MXD1 (MAD1) (SPR)” value at MXD1 (MAD1) bHLHZip is reported as “negligible”. The “binding to YFP (SPR)” value with YFP is listed as “negligible”. In addition, the “concentration of binding to BCL-XL” value with BCL-XL [3] was 14 nM.

These data come from publication PMC6030159 (Scientific Reports, 2018).
